The source of these data is patent US8008461B2, “Carbonyl reductase, gene therefor and use thereof” (Kaneka Corporation, priority 2004, dated 2011).

The subject of the experiment is purified polypeptide (carbonyl reductase). Nature of the experiment: Substrate specificity of polypeptide (NADPH-dependent reduction of carbonyl compounds). The format is biochemical, Candida magnoliae strain NBRC0661. The note with it: 1 mM substrate, 0.25 mM NADPH, pH 6.5, 30° C.; relative to activity to 3-oxo-3-phenylpropanenitrile.

On to `CCC(=O)Cc1ccccc1` [1-phenyl-2-butanone], for which the Relative activity was found to be 1144%.

Take `CC(=O)c1ccccn1` [2-acetylpyridine]: the Relative activity came to 1926%.

As for `CCC(C)=O` [2-butanone], the Relative activity was 181%.

For the molecule `O=C(CCl)c1cccc(Cl)c1` [2-chloro-1-(3′-chlorophenyl)ethanone], the Relative activity worked out at 10473%.

Take `CCCCCC(C)=O` [2-heptanone]: the Relative activity is reported as 782%.

Turning to `CCCCC(C)=O` [2-hexanone], the Relative activity is listed as 602%.

Consider `O=C(CO)c1ccccc1` [2-hydroxyacetophenone], for which the Relative activity stood at 1806%.

As for `CCC(=O)C(=O)O` [2-keto-n-butyric acid], the Relative activity was found to be 1866%.

For the molecule `COc1ccc(C(C)=O)cc1OC` [3,4-dimethoxyacetophenone], the Relative activity was determined as 2889%.

Consider `CC(=O)c1cccnc1` [3-acetylpyridine], for which the Relative activity is recorded as 2107%.

As for `N#CCC(=O)c1ccccc1` [3-oxo-3-phenylpropanenitrile], the Relative activity was found to be 100%.

As for `CC(=O)c1ccncc1` [4-acetylpyridine], the Relative activity stood at 15710%.

Consider `CC(=O)CCO` [4-hydroxy-2-butanone], for which the Relative activity stood at 301%.

On to `CC(=O)CC(C)C` [4-methyl-2-pentanone], for which the Relative activity amounted to 60%.

Regarding `CC(=O)c1ccccc1` [acetophenone], the Relative activity is recorded as 1023%.

`CC(=O)CC(=O)OCc1ccccc1` [benzyl acetoacetate]: the Relative activity was found to be 4936%.

As to `CC(=O)CCc1ccccc1` [benzylacetone], the Relative activity is on record as 241%.

In the case of `CC(=O)C1CC1` [cyclopropyl methyl ketone], the Relative activity is recorded as 181%.

On to `CCOC(=O)CC(=O)CCl` [ethyl 4-chloroacetoacetate], for which the Relative activity was 8547%.

Regarding `CCOC(=O)CC(C)=O` [ethyl acetoacetate], the Relative activity worked out at 903%.

As to `CCOC(=O)CC(=O)c1ccccc1` [ethyl benzoylacetate], the Relative activity worked out at 7704%.

Turning to `CC(=O)CO` [hydroxyacetone], the Relative activity is listed as 361%.

In the case of `CC(=O)c1cccc([N+](=O)[O-])c1` [m-nitroacetophenone], the Relative activity turned out to be 5056%.

As to `COC(=O)C(C)=O` [methyl pyruvate], the Relative activity turned out to be 9450%.

Take `O=C(O)CC(=O)C(=O)O` [oxalacetic acid]: the Relative activity is reported as 421%.

For `CC(=O)c1ccc(Cl)cc1` [p-chloroacetophenone], the Relative activity was 2347%.

As to `CC(=O)c1ccc(F)cc1` [p-fluoroacetophenone], the Relative activity was 722%.

In the case of `CC(=O)c1ccc(C)cc1` [p-methylacetophenone], the Relative activity came out at 542%.

In the case of `CCC(=O)c1ccccc1` [propiophenone], the Relative activity is 3010%.
